# Source: ChEMBL document CHEMBL5321289, “Establishment of an MR1 Presentation Reporter Screening System and Identification of Phenylpropanoid Derivatives as MR1 Ligands” (J Med Chem, 2023)
# Activity calls are given as the source filed them. No cut-off for these calls is given here.
# Experiments:
# HeLa [1] = test: Induction of cell surface translocation of MR1 in human HeLa overexpressing MR1 assessed as increase in MR1 cell surface levels at 10 uM incubated for 8 hrs followed by labeling with PE-conjugated anti-hMR1 antibody by flow cytometry analysis; type: functional, cell-based
# TG40 cell [2] = test: Activation of mouse TG40 cells transfected with MAIT-alpha/betaTCR co-cultured with human HeLa cells overexpressing human MR1 assessed as upregulation of CD69 surface expression […] at 10 uM incubated for 24 hrs by flow cytometry; type: functional, cell-based
# HeLa [3] = test: Induction of cell surface translocation of MR1 in human HeLa overexpressing MR1 assessed as increase in MR1 cell surface levels at 0.1 to 10 uM incubated for 8 hrs followed by labeling with PE-conjugated anti-hMR1 antibody by flow cytometry analysis; type: functional, cell-based; conditions: dose 0.1-10 µM
# HEK293 = test: Induction of cell surface translocation of MR1 in human HEK293 cells expressing N-terminal HiBit-tagged human beta2m/MR1 assessed as increase in MR1 cell surface expression level at 10 uM incubated for 8 hrs followed by labeling with PE-conjugated anti-hMR1 antibody by flow cytometry analysis; type: functional, cell-based
# HeLa [4] = test: Cytotoxicity against human HeLa cells overexpressing MR1 assessed as reduction in cell viability at 3 to 100 uM incubated for 8 hrs by MTS assay; type: toxicity, cell-based; conditions: dose 3-100 µM
# HeLa [5] = test: Effect on MR1-specific presentation in human HeLa overexpressing MR1 assessed as increase in HLA-A/B/C cell surface levels incubated for 8 hrs followed by labeling with PE-conjugated anti-hMR1 antibody and APC-conjugated anti-HLA-A/B/C antibody by flow cytometry analysis; type: functional, cell-based
# [6] = Inhibition of 5-OR-RU induced activation of mouse TG40 cells transfected with MAIT-alpha/betaTCR co-cultured with human HeLa cells overexpressing human MR1 assessed as upregulation of CD69 surface expression […] incubated for 24 hrs by flow cytometry; type: functional, cell-based; conditions: TG40 cell
# HeLa [7] = test: Cytotoxicity against human HeLa cells overexpressing MR1 assessed as reduction in cell viability at 3 to 100 uM incubated for 24 hrs by MTS assay; type: toxicity, cell-based; conditions: dose 3-100 µM
# [8] = Cytotoxicity against mouse TG40 cells transfected with MAIT-alpha/betaTCR assessed as reduction in cell viability at 30 to 100 uM incubated for 24 hrs by MTS assay; type: toxicity, cell-based; conditions: dose 30-100 µM
# [9] = Induction of cell surface translocation of MR1 in human HeLa overexpressing MR1 assessed as increase in MR1 cell surface levels incubated for 8 hrs followed by labeling with PE-conjugated anti-hMR1 antibody by flow cytometry analysis; type: functional, cell-based
# [10] = Cytotoxicity against mouse TG40 cells transfected with MAIT-alpha/betaTCR assessed as reduction in cell viability at 3 to 10 uM incubated for 24 hrs by MTS assay; type: toxicity, cell-based; conditions: dose 3-10 µM
# TG40 cell [11] = test: Activation of mouse TG40 cells transfected with MAIT-alpha/betaTCR co-cultured with human HEK293 cells expressing N-terminal HiBit-tagged human beta2m/MR1 assessed as upregulation of CD69 surface expression on TG40 cells at 1 uM incubated for 24 hrs by flow cytometry; type: functional, cell-based
# TG40 cell [12] = test: Activation of mouse TG40 cells transfected with MAIT-alpha/betaTCR co-cultured with human […] expressing N-terminal HiBit-tagged human beta2m/MR1 assessed as upregulation of CD69 surface expression […] at 1 uM incubated for 24 hrs by flow cytometry; type: functional, cell-based
# TG40 cell [13] = test: Activation of mouse TG40 cells transfected with MAIT-alpha/betaTCR co-cultured with human HEK293 cells expressing N-terminal HiBit-tagged human beta2m/MR1 assessed as upregulation of CD69 surface expression on TG40 cells at 10 uM incubated for 24 hrs by flow cytometry; type: functional, cell-based
smiles,measurement,setting,value
COc1cc(/C=C/C(C)=O)ccc1O,Activity,HeLa [1],inactive
CC(C)(C)c1cc(C=O)c(O)c(C=O)c1,Activity,TG40 cell [2],inactive
same,Activity,HeLa [3],Dose-Dependent Effect
COc1cc(/C=C/C(=O)O)ccc1O,Activity,HeLa [1],inactive
COc1cc(C#C[Si](C)(C)C)c(C=O)cc1OC,Activity,TG40 cell [2],inactive
same,Activity,HeLa [3],Dose-Dependent Effect
COc1cc(/C=C/C=O)cc2c1OCO2,Activity,HeLa [1],inactive
COc1cc(/C=C/C=O)c(OC)c2c1OCO2,Activity,HeLa [1],inactive
Cc1ccc(/C=C/C=O)cc1,Activity,HeLa [1],inactive
CN(C)c1cc(/C=C/C=O)ccc1O,Activity,HeLa [1],inactive
O=Cc1ccc(O)c(C(=O)O)c1,Activity,HEK293,Active
COc1ccccc1/C=C/C=O,Activity,HeLa [1],inactive
O=C/C=C/c1ccccc1O,Activity,HeLa [1],inactive
COc1cc(/C=C/C=C/C=O)ccc1O,Activity,HeLa [1],inactive
O=C/C=C/c1ccccc1,Activity,HeLa [1],inactive
O=Cc1ccccc1C#C/C=C/CO,Activity,TG40 cell [2],inactive
same,Activity,HeLa [3],Dose-Dependent Effect
COCCOC(=O)/C(=C\c1cc(C(C)(C)C)c(O)c(C(C)(C)C)c1)C(C)=O,Activity,TG40 cell [2],inactive
same,Activity,HeLa [3],Dose-Dependent Effect
COc1cc(I)c(C=O)cc1OC,Activity,TG40 cell [2],inactive
same,Activity,HeLa [3],Dose-Dependent Effect
COc1ccc(/C=C(\C)C=O)cc1,Activity,HeLa [1],inactive
COc1ccc(O)c(/C=C/C=O)c1,Activity,HeLa [1],inactive
CC(C)=CCc1cc(/C=C/C=O)ccc1O,Activity,HeLa [1],inactive
COc1cc(/C=C/C=O)ccc1O [CONIFERYL ALDEHYDE],Activity,HeLa [4],Non-Toxic
same,Activity,HeLa [5],inactive
same,IC50,[6],11.6 µM
same,Activity,HeLa [7],Non-Toxic
same,Activity,[8],Toxic
same,Activity,TG40 cell [2],inactive
same,Activity,HeLa [3],Dose-Dependent Effect
same,EC50,[9],9.03 µM
same,Activity,[10],Non-Toxic
O=Cc1c(O)cccc1I,Activity,TG40 cell [2],inactive
same,Activity,HeLa [3],Dose-Dependent Effect
COc1cc(/C=C/C=O)c(OC)cc1O,Activity,HeLa [4],Non-Toxic
same,Activity,HeLa [5],inactive
same,IC50,[6],7.34 µM
same,Activity,HeLa [7],Non-Toxic
same,Activity,[8],Toxic
same,Activity,TG40 cell [2],inactive
same,EC50,[9],3.89 µM
same,Activity,HeLa [1],Active
same,Activity,[10],Non-Toxic
COc1ccc(/C=C/C=O)cc1,Activity,HeLa [1],inactive
COc1cc(O)ccc1/C=C/C=O,Activity,HeLa [4],Non-Toxic
same,Activity,HeLa [5],inactive
same,IC50,[6],7.93 µM
same,Activity,HeLa [7],Non-Toxic
same,Activity,[8],Toxic
same,Activity,TG40 cell [2],inactive
same,EC50,[9],5.27 µM
same,Activity,HeLa [1],Active
same,Activity,[10],Non-Toxic
CC(=O)/C=N/c1c(NC[C@H](O)[C@H](O)[C@H](O)CO)[nH]c(=O)[nH]c1=O,Activity,TG40 cell [11],Active
same,Activity,HEK293,Active
same,Activity,TG40 cell [12],inactive
COc1cc(C=O)ccc1O,Activity,HeLa [1],inactive
CC(=O)Nc1nc(O)c2nc(C=O)cnc2n1,Activity,HeLa [4],Non-Toxic
same,Activity,HeLa [5],inactive
same,IC50,[6],0.017 µM
same,Activity,HeLa [7],Non-Toxic
same,Activity,[8],Toxic
same,Activity,TG40 cell [13],inactive
same,EC50,[9],0.153 µM
same,Activity,HEK293,Active
same,Activity,[10],Non-Toxic
CCCCCC/C(C=O)=C\c1ccccc1,Activity,HeLa [1],inactive
COc1ccc(/C=C/C=O)cc1O,Activity,HeLa [1],inactive
COc1cc(CCC=O)ccc1O,Activity,HeLa [1],inactive
O=C/C=C/c1ccc(O)c(O)c1 [CAFFEOYL ALDEHYDE],Activity,HeLa [4],Non-Toxic
same,Activity,HeLa [5],inactive
same,Activity,HeLa [7],Non-Toxic
same,Activity,[8],Toxic
same,Activity,TG40 cell [2],inactive
same,EC50,[9],2.58 µM
same,Activity,HeLa [1],Active
same,Activity,[10],Non-Toxic
COc1cccc(/C=C/C=O)c1,Activity,HeLa [1],inactive
COc1cc(/C=C/C=O)cc(OC)c1O,Activity,HeLa [1],inactive
COc1cc(/C=C/C#N)ccc1O,Activity,HeLa [1],inactive
COc1cc(/C=C/C=O)c[nH]c1=O,Activity,HeLa [1],inactive
Nc1nc2ncc(C=O)nc2c(=O)[nH]1,Activity,HeLa [4],Non-Toxic
same,IC50,[6],0.505 µM
same,Activity,HeLa [7],Non-Toxic
same,Activity,[8],Toxic
same,EC50,[9],1.63 µM
same,Activity,[10],Non-Toxic
O=CC1=Cc2ccc(O)cc2OC1,Activity,HeLa [1],inactive
O=C/C=C/c1ccc(O)cc1,Activity,HeLa [1],inactive
